Where a name gives a salt, the structure may show the parent alone.
Tested on: lean overnight fasted rats
Assay: Fasted-refed acute feeding assay (reduction of food intake)
Format: in vivo, rat
Conditions: 10 mg/kg p.o., single dose, measured at time points from 30 to 240 minutes
Text: Evaluation of Compound's Efficacy on the Reduction of Food Intake (Suppression of Appetite) in Lean Overnight Fasted Rats
Fasted-Refed Acute Feeding Assay
The purpose of this protocol is to determine the effect of a single dose of an unknown compound on food consumption of lean overnight fasted rats. The fasted-refed rat model is frequently used in the field of obesity to identify compounds with potential for anorectic effects. This animal model has been successfully used in the identification and characterization of the efficacy profile of compounds that are or have been used in the management of body weight in obese humans (see, e.g., Balvet et al., Gen. Pharmacol. 13:293-297, 1982; Grignaschi et al., Br. J. Pharmacol. 127:1190-1194, 1999; McTavish and Heel, Drug 43:713-733, 1992; Rowland et al., Life Sci. 36:2295-2300, 1985). […]
The vehicle test: The rats are grouped based upon their performance on a vehicle test. […] After 1 hour, the spillage is returned to the food jar and the amount of food consumed is determined. […]
The efficacy test: The rats are fasted overnight during the dark phase (total of approx. 16-18 hr). […] Food intake is recorded 30, 60, 90, 180, and 240 minutes post-food return. […] The amount of food consumed is determined for each time point. Difference between treatment group is determined using appropriate statistical analysis.

## COc1ccc(-c2c(C)c(C(=O)NNc3ccc(C(F)(F)F)cc3)c(C)n2-c2ccccc2Cl)cc1.Cl [Entry 43, 1-(2-chlorophenyl)-5-(4-methoxyphenyl)-2,4-dimethyl-N′-[4-(trifluoromethyl)phenyl]-1H-pyrrole-3-carbohydrazide hydrochloride]
  food consumption was reduced (relative to the food consumption observed for the vehicle control group): up to 35%

## Cc1c(C(=O)NN2CCCCC2)cc(-c2ccc(Cl)cc2)n1-c1ccccc1Cl [Entry 23, 1-(2-chlorophenyl)-5-(4-chlorophenyl)-2-methyl-N-(1-piperidinyl)-1H-pyrrole-3-carboxamide hydrochloride]
  food consumption was reduced (relative to the food consumption observed for the vehicle control group): up to 25%

— patent US20040267028A1, “Preparation and use of pyrrole derivatives for treating obesity” (priority 2001, published 2004)
